From PubChem BioAssay AID1963433 (Molecular Pharmacology Branch, DTP, NCI, 2024)

Tested on: 772245-204-R-J1-PDC complex spheroid growth
Experiment: Anticancer human tumor 772245-204-R-J1-PDC patient-derived rhabdomyosarcoma cell line growth inhibition [Asc]
Settings: for IC50: curve of first compound; for viability, T/C: stronger effect = lower value
Outline: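 Complex solid-tumor spheroids incorporating human endothelial and mesenchymal stem cells received single agents or combinations over half-log dilution ranges anchored to clinical Cmax.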

[1] = second compound 0.01 µM, first compound 0.00316 µM
[2] = second compound 0.01 µM, first compound 0.01 µM
[3] = second compound 0.01 µM, first compound 0.0316 µM
[4] = second compound 0.01 µM, first compound 0.1 µM
[5] = second compound 0.01 µM, first compound 0.316 µM
[6] = second compound 0.01 µM, first compound 1 µM
[7] = second compound 0.0316 µM, first compound 0.00316 µM
[8] = second compound 0.0316 µM, first compound 0.01 µM
[9] = second compound 0.0316 µM, first compound 0.0316 µM
[10] = second compound 0.0316 µM, first compound 0.1 µM
[11] = second compound 0.0316 µM, first compound 0.316 µM
[12] = second compound 0.0316 µM, first compound 1 µM
[13] = second compound 0.1 µM, first compound 0.00316 µM
[14] = second compound 0.1 µM, first compound 0.01 µM
[15] = second compound 0.1 µM, first compound 0.0316 µM
[16] = second compound 0.1 µM, first compound 0.1 µM
[17] = second compound 0.1 µM, first compound 0.316 µM
[18] = second compound 0.1 µM, first compound 1 µM
[19] = second compound 0.316 µM, first compound 0.00316 µM
[20] = second compound 0.316 µM, first compound 0.01 µM
[21] = second compound 0.316 µM, first compound 0.0316 µM
[22] = second compound 0.316 µM, first compound 0.1 µM
[23] = second compound 0.316 µM, first compound 0.316 µM
[24] = second compound 0.316 µM, first compound 1 µM
[25] = second compound 1 µM, first compound 0.00316 µM
[26] = second compound 1 µM, first compound 0.01 µM
[27] = second compound 1 µM, first compound 0.0316 µM
[28] = second compound 1 µM, first compound 0.1 µM
[29] = second compound 1 µM, first compound 0.316 µM
[30] = second compound 1 µM, first compound 1 µM
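Note: compound exposure lasted seven days.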
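Throughout, for viability, T/C: 100% = DMSO vehicle control viability.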

For `CCN1CCN(Cc2ccc(Nc3ncc(F)c(-c4cc(F)c5nc(C)n(C(C)C)c5c4)n3)nc2)CC1` + CNC(C)C(=O)NC1CN(S(=O)(=O)c2cccc(S(=O)(=O)N3CCC4CCC(C(=O)NC(c5ccccc5)c5ccccc5)N4C(=O)C(NC(=O)C(C)NC)C3)c2)CCC2CCC(C(=O)NC(c3ccccc3)c3ccccc3)N2C1=O, the IC50 (second compound 0.01 µM) was > 1000 nM, the IC50 (second compound 0.0316 µM) was > 1000 nM and the IC50 (second compound 0.1 µM) was > 1000 nM. The IC50 (second compound 0.316 µM) was > 1000 nM, the IC50 (second compound 1 µM) was > 1000 nM and the viability, T/C [1] was 104%. The viability, T/C [2] was 94.3%, the viability, T/C [3] was 90.8% and the viability, T/C [4] was 99.8%. The viability, T/C [5] was 106%, the viability, T/C [6] was 108% and the viability, T/C [7] was 85.3%. For the same compound, the viability, T/C [8] was 95.3%, the viability, T/C [9] was 96% and the viability, T/C [10] was 94%. The viability, T/C [11] was 102%, the viability, T/C [12] was 103% and the viability, T/C [13] was 82.3%. For the same compound, the viability, T/C [14] was 89.9%, the viability, T/C [15] was 85.8% and the viability, T/C [16] was 104%. It also gave a viability, T/C [17] of 104%, a viability, T/C [18] of 115% and a viability, T/C [19] of 103%. The viability, T/C [20] was 94.1%, the viability, T/C [21] was 96.1% and the viability, T/C [22] was 89.4%. For the same compound, the viability, T/C [23] was 92.8%, the viability, T/C [24] was 104% and the viability, T/C [25] was 87.8%. The viability, T/C [26] was 94.3%, the viability, T/C [27] was 102% and the viability, T/C [28] was 98.8%. The viability, T/C [29] was 105% and the viability, T/C [30] was 104%.

For `NC(=O)C(=Cn1cnc(-c2cc(C(F)(F)F)cc(C(F)(F)F)c2)n1)c1cncnc1` + CNC(C)C(=O)NC1CN(S(=O)(=O)c2cccc(S(=O)(=O)N3CCC4CCC(C(=O)NC(c5ccccc5)c5ccccc5)N4C(=O)C(NC(=O)C(C)NC)C3)c2)CCC2CCC(C(=O)NC(c3ccccc3)c3ccccc3)N2C1=O, the IC50 (second compound 0.01 µM) was > 300 nM, the IC50 (second compound 0.0316 µM) was > 300 nM and the IC50 (second compound 0.1 µM) was > 300 nM. The IC50 (second compound 0.316 µM) was > 300 nM, the IC50 (second compound 1 µM) was > 300 nM and the viability, T/C (second compound 0.01 µM, first compound 0.000949 µM) was 96.8%. The viability, T/C (second compound 0.01 µM, first compound 0.003 µM) was 107%, the viability, T/C (second compound 0.01 µM, first compound 0.00949 µM) was 100% and the viability, T/C (second compound 0.01 µM, first compound 0.03 µM) was 84.2%. The viability, T/C (second compound 0.01 µM, first compound 0.0949 µM) was 62.2%, the viability, T/C (second compound 0.01 µM, first compound 0.3 µM) was 68.5% and the viability, T/C (second compound 0.0316 µM, first compound 0.000949 µM) was 92.9%. It also gave a viability, T/C (second compound 0.0316 µM, first compound 0.003 µM) of 114%, a viability, T/C (second compound 0.0316 µM, first compound 0.00949 µM) of 100% and a viability, T/C (second compound 0.0316 µM, first compound 0.03 µM) of 77.2%. It also gave a viability, T/C (second compound 0.0316 µM, first compound 0.0949 µM) of 88.7%, a viability, T/C (second compound 0.0316 µM, first compound 0.3 µM) of 67.3% and a viability, T/C (second compound 0.1 µM, first compound 0.000949 µM) of 97.8%. For the same compound, the viability, T/C (second compound 0.1 µM, first compound 0.003 µM) was 98.9%, the viability, T/C (second compound 0.1 µM, first compound 0.00949 µM) was 91.9% and the viability, T/C (second compound 0.1 µM, first compound 0.03 µM) was 80.9%. The viability, T/C (second compound 0.1 µM, first compound 0.0949 µM) was 57.3%, the viability, T/C (second compound 0.1 µM, first compound 0.3 µM) was 71.7% and the viability, T/C (second compound 0.316 µM, first compound 0.000949 µM) was 95.3%. It also gave a viability, T/C (second compound 0.316 µM, first compound 0.003 µM) of 97.2%, a viability, T/C (second compound 0.316 µM, first compound 0.00949 µM) of 86.2% and a viability, T/C (second compound 0.316 µM, first compound 0.03 µM) of 77.8%. It also gave a viability, T/C (second compound 0.316 µM, first compound 0.0949 µM) of 62%, a viability, T/C (second compound 0.316 µM, first compound 0.3 µM) of 69.3% and a viability, T/C (second compound 1 µM, first compound 0.000949 µM) of 99.2%. The viability, T/C (second compound 1 µM, first compound 0.003 µM) was 97.2%, the viability, T/C (second compound 1 µM, first compound 0.00949 µM) was 94.4% and the viability, T/C (second compound 1 µM, first compound 0.03 µM) was 102%. For the same compound, the viability, T/C (second compound 1 µM, first compound 0.0949 µM) was 78.3% and the viability, T/C (second compound 1 µM, first compound 0.3 µM) was 56.7%.

In the case of `O=C(c1ccc(F)c(F)c1Nc1ccc(I)cc1F)N1CC(O)([C@@H]2CCCCN2)C1` + CNC(C)C(=O)NC1CN(S(=O)(=O)c2cccc(S(=O)(=O)N3CCC4CCC(C(=O)NC(c5ccccc5)c5ccccc5)N4C(=O)C(NC(=O)C(C)NC)C3)c2)CCC2CCC(C(=O)NC(c3ccccc3)c3ccccc3)N2C1=O, the IC50 (second compound 0.01 µM) is reported as > 1000 nM, the IC50 (second compound 0.0316 µM) is reported as > 1000 nM and the IC50 (second compound 0.1 µM) is reported as > 1000 nM. For the same compound, the IC50 (second compound 0.316 µM) was > 1000 nM, the IC50 (second compound 1 µM) was > 1000 nM and the viability, T/C [1] was 93.1%. For the same compound, the viability, T/C [2] was 85.4%, the viability, T/C [3] was 93.3% and the viability, T/C [4] was 84.8%. The viability, T/C [5] was 97.9%, the viability, T/C [6] was 105% and the viability, T/C [7] was 98.3%. It also gave a viability, T/C [8] of 90.7%, a viability, T/C [9] of 95.2% and a viability, T/C [10] of 93.2%. The viability, T/C [11] was 101%, the viability, T/C [12] was 95.4% and the viability, T/C [13] was 93.3%. The viability, T/C [14] was 84.8%, the viability, T/C [15] was 90.1% and the viability, T/C [16] was 87.6%. It also gave a viability, T/C [17] of 103%, a viability, T/C [18] of 77.9% and a viability, T/C [19] of 91.7%. For the same compound, the viability, T/C [20] was 88.1%, the viability, T/C [21] was 96.8% and the viability, T/C [22] was 99.8%. It also gave a viability, T/C [23] of 103%, a viability, T/C [24] of 112% and a viability, T/C [25] of 100%. The viability, T/C [26] was 89.7%, the viability, T/C [27] was 88.8% and the viability, T/C [28] was 92%. The viability, T/C [29] was 94.5% and the viability, T/C [30] was 97.6%.
